This experiment deals with Calcium-activated potassium channel subunit alpha-1 (Homo sapiens) (UniProt Q12791). In words: Activation of human BKalpha channel expressed in CHOK1 cells assessed as increase in ionic current at 30 uM by patch clamp method relative to control. Conditions: CHO-K1. Format: cell-based.

Molecules are shown by their SMILES.

Calcium-activated potassium channel subunit alpha-1 (Homo sapiens), sequence (Q12791 whole entry): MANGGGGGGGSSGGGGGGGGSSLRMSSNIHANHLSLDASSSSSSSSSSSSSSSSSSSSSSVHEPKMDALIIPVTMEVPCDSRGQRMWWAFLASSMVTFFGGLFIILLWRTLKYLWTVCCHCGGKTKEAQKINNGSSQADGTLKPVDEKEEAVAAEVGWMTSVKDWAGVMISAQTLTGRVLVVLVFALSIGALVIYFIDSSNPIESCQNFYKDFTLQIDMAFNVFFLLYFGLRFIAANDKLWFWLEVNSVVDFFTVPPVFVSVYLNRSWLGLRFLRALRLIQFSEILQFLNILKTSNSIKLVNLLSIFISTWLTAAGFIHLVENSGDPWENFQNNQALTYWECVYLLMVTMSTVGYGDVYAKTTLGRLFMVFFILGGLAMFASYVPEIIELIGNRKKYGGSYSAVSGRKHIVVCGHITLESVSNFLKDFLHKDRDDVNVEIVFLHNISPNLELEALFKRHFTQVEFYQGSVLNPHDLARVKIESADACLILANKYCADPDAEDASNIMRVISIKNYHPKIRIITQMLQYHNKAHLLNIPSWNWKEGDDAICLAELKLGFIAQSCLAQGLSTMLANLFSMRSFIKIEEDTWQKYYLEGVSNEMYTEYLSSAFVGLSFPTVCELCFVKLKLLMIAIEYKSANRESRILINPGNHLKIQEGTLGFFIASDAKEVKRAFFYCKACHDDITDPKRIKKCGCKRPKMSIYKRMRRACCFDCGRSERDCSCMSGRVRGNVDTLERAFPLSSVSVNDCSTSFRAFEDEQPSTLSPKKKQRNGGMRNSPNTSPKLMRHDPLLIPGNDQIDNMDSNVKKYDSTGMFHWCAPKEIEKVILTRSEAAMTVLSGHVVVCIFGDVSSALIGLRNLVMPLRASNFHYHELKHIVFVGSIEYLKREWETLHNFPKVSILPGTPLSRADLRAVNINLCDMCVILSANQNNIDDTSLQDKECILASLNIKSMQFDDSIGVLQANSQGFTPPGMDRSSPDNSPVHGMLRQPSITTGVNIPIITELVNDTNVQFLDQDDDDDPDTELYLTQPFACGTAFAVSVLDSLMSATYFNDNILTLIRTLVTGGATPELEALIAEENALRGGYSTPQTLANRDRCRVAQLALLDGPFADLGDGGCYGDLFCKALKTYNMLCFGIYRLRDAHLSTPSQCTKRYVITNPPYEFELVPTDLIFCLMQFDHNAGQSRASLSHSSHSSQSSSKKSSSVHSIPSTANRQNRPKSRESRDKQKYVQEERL

On to `CO/N=C1\C[C@H]2[C@](C)(C(=O)O)CCC[C@]2(C)c2cc(Cl)c(C(C)C)c(Cl)c21`, for which the Activity was 410%.
Turning to `C#CCO/N=C1\C[C@H]2[C@](C)(C(=O)O)CCC[C@]2(C)c2cc(Cl)c(C(C)C)c(Cl)c21`, the Activity came out at 425%.
For the compound `O=c1[nH]c2cc(C(F)(F)F)ccc2n1-c1cc(C(F)(F)F)ccc1O`, the Activity came to 325%.
The value for `C=CCO/N=C1\C[C@H]2[C@](C)(C(=O)O)CCC[C@]2(C)c2cc(Cl)c(C(C)C)c(Cl)c21` was 566%; that for `CC(C)c1c(Cl)cc2c(c1Cl)/C(=N/O)C[C@H]1[C@](C)(C(=O)O)CCC[C@]21C` was 242%.

The values above are taken from ChEMBL document CHEMBL1141013, “Novel oxime and oxime ether derivatives of 12,14-dichlorodehydroabietic acid: design, synthesis, and BK channel-opening activity” (Bioorg Med Chem Lett, 2008).
